Like-named read-outs stand apart in the source and are kept apart here.

This note sets out measurements from US11702429B2, “mTORC modulators and uses thereof” (Aeovian Pharmaceuticals, Inc., priority 2019, dated 2023).

For one assay, the target named is T1, mTORC2 (Homo sapiens, UniProt P42345+P62942).
T1 construct: endogenous in cells; host or cells: PC3 cells (human prostate adenocarcinoma)
In words: Inhibition assay for mTORC2: phosphorylation of pAkt at Ser473, AlphaLISA in PC3 cells. It counts as cell-based. Conditions: for IC50: read-out: pIC50 mTORC2 (converted).

In a further assay the target is T2, mTORC1 (Homo sapiens, UniProt P42345+P62942).
T2 construct: endogenous in cells; host or cells: PC3 cells (human prostate adenocarcinoma)
In words: Inhibition assay for mTORC1: phosphorylation of pS6K at Thr389, AlphaLISA in PC3 cells. Conditions: for IC50: read-out: pIC50 mTORC1 (converted). It counts as cell-based.

Setting [1] is: PC3 cells, treated 24 hours, pAkt Ser473, AlphaLISA, C16 diastereomer mixtures not separated.
The mark [2] stands for this setting: PC3 cells, treated 24 hours, pS6K Thr389, AlphaLISA, C16 diastereomer mixtures not separated.

T1 sequence (P62942 2-108 limits assumed, other chains not shown): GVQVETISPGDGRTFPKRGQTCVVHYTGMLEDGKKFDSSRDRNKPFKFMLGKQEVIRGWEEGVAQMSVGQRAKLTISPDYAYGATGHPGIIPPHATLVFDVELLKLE

As to `COC1CC2CCC(C)C(O)(O2)C(=O)C(=O)N2CCCCC2C(=O)OC(C(C)CC2CCC(OCCc3ccccc3)C(OC)C2)CC(=O)C(C)C=C(C)C(O)C(OC)C(=O)C(C)CC(C)C=CC=CC=C1C` (stereo not shown) [Compound 348], the results for the IC50 on mTORC2 and on mTORC1 were less than 1000 nM and less than 0.316 nM, respectively.

Consider `COC1C[C@@H]2CC[C@@H](C)[C@@](O)(O2)C(=O)C(=O)N2CCCCC2C(=O)O[C@H]([C@H](C)C[C@@H]2CC[C@@H](n3ncnn3)[C@H](OC)C2)CC(=O)[C@H](C)/C=C(\C)[C@@H](O)[C@@H](OC)C(=O)[C@H](C)C[C@H](C)/C=C/C=C/C=C/1C` (stereo partly shown) [Compound 307], for which the values for the IC50 on mTORC2 and on mTORC1 were less than 1000 nM and less than 0.316 nM, respectively.

Consider `COC1CC2CCC(C)C(O)(O2)C(=O)C(=O)N2CCCCC2C(=O)OC(C(C)CC2CCC(OC(=O)C3(C)COC(C)(C)OC3)C(OC)C2)CC(=O)C(C)C=C(C)C(O)C(OC)C(=O)C(C)CC(C)C=CC=CC=C1C` (stereo not shown) [Compound 309], for which the IC50 at mTORC2 was less than 1000 nM; on mTORC1 it was less than 0.316 nM.

As for `COCCOC1CC2CCC(C)C(O)(O2)C(=O)C(=O)N2CCCCC2C(=O)OC(C(C)CC2CCC(OCC(O)CO)C(OC)C2)CC(=O)C(C)C=C(C)C(O)C(OC)C(=O)C(C)CC(C)C=CC=CC=C1C` (stereo not shown) [Compound 45], the “pIC50 mTORC2” value at mTORC2 (setting [1]) is “B (5 to 6 as B)”. For the same compound, on mTORC1 (setting [2]), the “pIC50 mTORC1” value is on record as “A (pIC50 for mTORC1 of >9.5 as A)”.

As for `COC1C[C@@H]2CC[C@@H](C)[C@@](O)(O2)C(=O)C(=O)N2CCCCC2C(=O)O[C@H]([C@H](C)C[C@@H]2CC[C@@H](OCCCOCCO)[C@H](OC)C2)CC(=O)[C@H](C)/C=C(\C)[C@@H](O)[C@@H](OC)C(=O)[C@H](C)C[C@H](C)/C=C/C=C/C=C/1C` (stereo partly shown) [Compound 319], the IC50 at mTORC2 is less than 1000 nM; at mTORC1 it was less than 0.316 nM.

In the case of `COC1C[C@@H]2CC[C@@H](C)[C@@](O)(O2)C(=O)C(=O)N2CCCCC2C(=O)O[C@H]([C@H](C)C[C@@H]2CC[C@@H](OC(=O)NCCc3ccncc3)[C@H](OC)C2)CC(=O)[C@H](C)/C=C(\C)[C@@H](O)[C@@H](OC)C(=O)[C@H](C)C[C@H](C)/C=C/C=C/C=C/1C` (stereo partly shown) [Compound 334], the IC50 on mTORC2 was less than 1000 nM; at mTORC1, less than 0.316 nM.

Turning to `COCCOC1C[C@@H]2CC[C@@H](C)[C@@](O)(O2)C(=O)C(=O)N2CCCC[C@H]2C(=O)O[C@H]([C@H](C)C[C@@H]2CC[C@@H](OCCCN3CCC(C(C)(C)O)CC3)[C@H](OC)C2)CC(=O)[C@H](C)/C=C(\C)[C@@H](O)[C@@H](OC)C(=O)[C@H](C)C[C@H](C)/C=C/C=C/C=C/1C` (mixture of isomers) [Compound 74], the IC50 was 1000 to 10000 nM at mTORC2 (setting [1]) and less than 0.316 nM on mTORC1 (setting [2]).

Take `COC1C[C@@H]2CC[C@@H](C)[C@@](O)(O2)C(=O)C(=O)N2CCCCC2C(=O)O[C@H]([C@H](C)C[C@@H]2CC[C@@H](OC(=O)NCc3ccccc3)[C@H](OC)C2)CC(=O)[C@H](C)/C=C(\C)[C@@H](O)[C@@H](OC)C(=O)[C@H](C)C[C@H](C)/C=C/C=C/C=C/1C` (stereo partly shown) [Compound 355]: the IC50 on mTORC2 is less than 1000 nM; at mTORC1 it was less than 0.316 nM.

Regarding `COC1C[C@@H]2CC[C@@H](C)[C@@](O)(O2)C(=O)C(=O)N2CCCCC2C(=O)O[C@H]([C@H](C)C[C@@H]2CC[C@@H](OC(=O)N(C)CCN3CCCCC3)[C@H](OC)C2)CC(=O)[C@H](C)/C=C(\C)[C@@H](O)[C@@H](OC)C(=O)[C@H](C)C[C@H](C)/C=C/C=C/C=C/1C` (stereo partly shown) [Compound 318], the IC50 at mTORC2 was less than 1000 nM; at mTORC1, less than 0.316 nM.

Regarding `CO[C@@H]1C[C@H](C[C@@H](C)[C@@H]2CC(=O)[C@H](C)/C=C(\C)[C@@H](O)[C@@H](OC)C(=O)[C@H](C)C[C@H](C)/C=C/C=C/C=C(\C)C(OC3CC3)C[C@@H]3CC[C@@H](C)[C@@](O)(O3)C(=O)C(=O)N3CCCCC3C(=O)O2)CC[C@H]1O` (stereo partly shown) [Compound 209], the figures for the IC50 on mTORC2 and at mTORC1 were less than 1000 nM and less than 0.316 nM, respectively.

As to `COCCOC1C[C@@H]2CC[C@@H](C)[C@@](O)(O2)C(=O)C(=O)N2CCCCC2C(=O)O[C@H]([C@H](C)C[C@@H]2CC[C@@H](O)[C@H](OC)C2)CC(=O)[C@H](C)/C=C(\C)[C@@H](O)[C@@H](OC)C(=O)[C@H](C)C[C@H](C)/C=C/C=C/C=C/1C` (stereo partly shown) [Compound 220], the values for the IC50 at mTORC2 and at mTORC1 were 1000 to 10000 nM and less than 0.316 nM, respectively.

Take `COC1CC2CCC(C)C(O)(O2)C(=O)C(=O)N2CCCCC2C(=O)OC(C(C)CC2CCC(O[Si](C)(C)C(C)(C)C)C(OC)C2)CC(=O)C(C)C=C(C)C(O)C(OC)C(=O)C(C)CC(C)C=CC=CC=C1C` (stereo not shown) [Compound 302]: the IC50 is 1000 to 10000 nM at mTORC2 and more than 3.16 nM at mTORC1.

`COC1C[C@@H]2CC[C@@H](C)[C@@](O)(O2)C(=O)C(=O)N2CCCCC2C(=O)O[C@H]([C@H](C)C[C@@H]2CC[C@@H](OC(=O)NCCc3ccccc3)[C@H](OC)C2)CC(=O)[C@H](C)/C=C(\C)[C@@H](O)[C@@H](OC)C(=O)[C@H](C)C[C@H](C)/C=C/C=C/C=C/1C` (stereo partly shown) [Compound 324]: the IC50 on mTORC2 was less than 1000 nM; on mTORC1, less than 0.316 nM.

Take `COC1C[C@@H]2CC[C@@H](C)[C@@](O)(O2)C(=O)C(=O)N2CCCCC2C(=O)O[C@H]([C@H](C)C[C@@H]2CC[C@@H](OC(=O)NC3C(O)O[C@H](CO)[C@@H](O)[C@@H]3O)[C@H](OC)C2)CC(=O)[C@H](C)/C=C(\C)[C@@H](O)[C@@H](OC)C(=O)[C@H](C)C[C@H](C)/C=C/C=C/C=C/1C` (stereo partly shown) [Compound 361]: the IC50 was less than 1000 nM at mTORC2 and more than 3.16 nM at mTORC1.
